21 molecules from US11254668B2, “Pyrazolo[1,5-A]pyrazin-4-yl and related derivatives” (Pfizer Inc., priority 2017, dated 2022) can be followed below.

For orientation: IC50 means the concentration needed to halve the response being measured.

Common to all, as to type: biochemical
Holding throughout (details): JAK Caliper enzyme assay

One assay addresses TYK2 (Homo sapiens (Human), UniProt P29597). The experiment in a line: JAK Caliper Enzyme Assay at 1 mM ATP, TYK2. The essentials:
(§1)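 Human recombinant kinase domain + fluorescently labelled synthetic peptide, 1 mM ATP, RT; enzyme level/time set for 20–30% phosphorylation. EDTA stop. LabChip separation, peak-height % conversion, % effect vs plate controls.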

Another assay concerns the target JAK1 (Homo sapiens (Human), UniProt P23458). The experiment in a line: JAK Caliper Enzyme Assay at 1 mM ATP, JAK1. The essentials: (§2)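 Recombinant human kinase domains phosphorylate a fluorescent synthetic peptide at 1 mM ATP, room temperature, with enzyme and time tuned for 20-30% conversion; EDTA-stopped. Product/substrate separated by microfluidic mobility shift; percent effect versus DMSO and positive controls fitted to IC50 (nM).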

A further assay concerns the target JAK2 (Homo sapiens (Human), UniProt O60674). Nature of the assay: JAK Caliper Enzyme Assay at 1 mM ATP, JAK2. In short, it runs like this:
as §1

In a further assay the target is JAK3 (Homo sapiens (Human), UniProt P52333). The experiment in a line: JAK Caliper Enzyme Assay at 1 mM ATP, JAK3. In short, it runs like this:
as §2

Chain of JAK2 (O60674 849-1124): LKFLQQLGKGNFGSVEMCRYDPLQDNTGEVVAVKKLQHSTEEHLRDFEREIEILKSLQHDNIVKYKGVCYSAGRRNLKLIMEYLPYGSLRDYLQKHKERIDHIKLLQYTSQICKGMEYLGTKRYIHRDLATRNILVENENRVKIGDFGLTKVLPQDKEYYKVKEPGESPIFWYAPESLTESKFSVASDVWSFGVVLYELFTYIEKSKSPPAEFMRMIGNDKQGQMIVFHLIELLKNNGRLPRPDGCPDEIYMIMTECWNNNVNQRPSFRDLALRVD
Chain of JAK3 (P52333 822-1111): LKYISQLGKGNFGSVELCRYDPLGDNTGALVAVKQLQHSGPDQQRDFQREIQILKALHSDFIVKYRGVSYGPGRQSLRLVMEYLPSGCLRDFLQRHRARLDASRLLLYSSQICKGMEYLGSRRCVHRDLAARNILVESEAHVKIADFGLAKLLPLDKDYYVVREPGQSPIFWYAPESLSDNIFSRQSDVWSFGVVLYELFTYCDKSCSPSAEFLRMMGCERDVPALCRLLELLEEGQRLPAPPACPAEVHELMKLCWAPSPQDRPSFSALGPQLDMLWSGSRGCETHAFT
Chain of TYK2 (P29597 897-1176): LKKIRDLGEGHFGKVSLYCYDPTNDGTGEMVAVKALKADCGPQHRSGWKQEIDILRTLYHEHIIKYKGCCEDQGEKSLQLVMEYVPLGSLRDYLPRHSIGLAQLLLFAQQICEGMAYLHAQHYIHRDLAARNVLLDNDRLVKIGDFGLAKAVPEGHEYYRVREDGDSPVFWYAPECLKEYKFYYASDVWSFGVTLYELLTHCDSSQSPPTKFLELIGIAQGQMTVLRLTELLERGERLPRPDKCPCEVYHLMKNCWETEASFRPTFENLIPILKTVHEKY
Chain of JAK1 (P23458 875-1153): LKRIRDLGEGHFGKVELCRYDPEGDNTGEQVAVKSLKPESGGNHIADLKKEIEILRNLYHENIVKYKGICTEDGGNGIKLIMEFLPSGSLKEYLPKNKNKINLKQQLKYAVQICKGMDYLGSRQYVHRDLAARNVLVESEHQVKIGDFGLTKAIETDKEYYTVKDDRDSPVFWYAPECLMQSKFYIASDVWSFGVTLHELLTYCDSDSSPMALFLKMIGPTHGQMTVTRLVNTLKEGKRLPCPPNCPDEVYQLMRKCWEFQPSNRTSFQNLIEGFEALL

For the molecule `Cn1cc(-c2cc(-c3cnn([C@]4(CC#N)C[C@@H](C#N)C4)c3)n3ccnc3c2)cn1` [Example 459, trans-3-(cyanomethyl)-3-{4-[7-(1-methyl-1H-pyrazol-4-yl)imidazo[1,2-a]pyridin-5-yl]-1H-pyrazol-1-yl}cyclobutanecarbonitrile], the half-inhibitory concentration (IC50) at TYK2 is 0.297 µM; on JAK1, > 10 µM; on JAK2, 3.15 µM; at JAK3, > 10 µM.
Regarding `CO[C@H]1C[C@@](CC#N)(n2cc(-c3cc(-c4cnn(C)c4)cc4nccn34)cn2)C1` [Example 460, (cis-3-methoxy-1-{4-[7-(1-methyl-1H-pyrazol-4-yl)imidazo[1,2-a]pyridin-5-yl]-1H-pyrazol-1-yl}cyclobutyl)acetonitrile], the IC50 on TYK2 was 0.395 µM; at JAK1, > 10 µM; at JAK2 it was 5.36 µM; at JAK3 it was > 10 µM.
`Cc1cc(-c2cc(-c3cnn([C@]4(CC#N)C[C@@H](C#N)C4)c3)n3ccnc3c2)[nH]n1` [Example 461, trans-3-(cyanomethyl)-3-{4-[7-(3-methyl-1H-pyrazol-5-yl)imidazo[1,2-a]pyridin-5-yl]-1H-pyrazol-1-yl}cyclobutanecarbonitrile]: the IC50 is 0.02 µM on TYK2, 1.56 µM at JAK1, 0.389 µM at JAK2 and > 10 µM on JAK3.
Regarding `Cc1cc(-c2cc(-c3cnn([C@]4(CC#N)C[C@H](C#N)C4)c3)n3ccnc3c2)n[nH]1` [Example 462, cis-3-(cyanomethyl)-3-{4-[7-(5-methyl-1H-pyrazol-3-yl)imidazo[1,2-a]pyridin-5-yl]-1H-pyrazol-1-yl}cyclobutanecarbonitrile], the half-maximal inhibitory concentration (IC50) on TYK2 was 0.02 µM; on JAK1, 0.873 µM; on JAK2, 0.188 µM; on JAK3, > 10 µM.
Taken in the same sequence, the figures for `CO[C@H]1C[C@@](CC#N)(n2cc(-c3cc(-c4c[nH]nc4CO)cc4nccn34)cn2)C1` [Example 463, [cis-1-(4-{7-[3-(hydroxymethyl)-1H-pyrazol-4-yl]imidazo[1,2-a]pyridin-5-yl}-1H-pyrazol-1-yl)-3-methoxycyclobutyl]acetonitrile] were 2.14 µM, > 10 µM, > 10 µM and > 10 µM.
On to `CO[C@H]1C[C@](CC#N)(n2cc(-c3cc(-c4c[nH]nc4CO)cc4nccn34)cn2)C1` [Example 464, [trans-1-(4-{7-[3-(hydroxymethyl)-1H-pyrazol-4-yl]imidazo[1,2-a]pyridin-5-yl}-1H-pyrazol-1-yl)-3-methoxycyclobutyl]acetonitrile], for which the IC50 at TYK2 was 4.66 µM; on JAK1 it was > 10 µM; on JAK2, > 10 µM; at JAK3 it was > 10 µM.
Regarding `Cc1ncc(-c2cc(-c3cnn([C@]4(CC#N)C[C@H](C#N)C4)c3)n3ccnc3c2)[nH]1` [Example 465, cis-3-(cyanomethyl)-3-{4-[7-(2-methyl-1H-imidazol-5-yl)imidazo[1,2-a]pyridin-5-yl]-1H-pyrazol-1-yl}cyclobutanecarbonitrile], the IC50 was 0.054 µM at TYK2, 6 µM at JAK1, 0.859 µM at JAK2 and > 10 µM on JAK3.
On the same counts, the results for `N#CC[C@]1(n2cc(-c3cc(-c4c[nH]nc4N)cc4nccn34)cn2)C[C@@H](C#N)C1` [Example 466, cis-3-{4-[7-(3-amino-1H-pyrazol-4-yl)imidazo[1,2-a]pyridin-5-yl]-1H-pyrazol-1-yl}-3-(cyanomethyl)cyclobutanecarbonitrile] are 0.073 µM, 2.71 µM, 1.26 µM and > 10 µM.
Taken in the same sequence, the figures for `N#CC[C@]1(n2cc(-c3cc(-c4nc(CO)cs4)cc4nccn34)cn2)C[C@@H](C#N)C1` [Example 467, cis-3-(cyanomethyl)-3-(4-{7-[4-(hydroxymethyl)-1,3-thiazol-2-yl]imidazo[1,2-a]pyridin-5-yl}-1H-pyrazol-1-yl)cyclobutanecarbonitrile] were 0.051 µM, 1.6 µM, 0.518 µM and > 10 µM.
Taken in the same sequence, the figures for `N#CC[C@]1(n2cc(-c3cc(-c4ccc(O)cc4)cc4nccn34)cn2)C[C@@H](C#N)C1` [Example 468, cis-3-(cyanomethyl)-3-{4-[7-(4-hydroxyphenyl)imidazo[1,2-a]pyridin-5-yl]-1H-pyrazol-1-yl}cyclobutanecarbonitrile] were 0.127 µM, 1.53 µM, 1.22 µM and > 10 µM.
As for `N#CC[C@]1(n2cc(-c3cc(-c4ccc(N)nc4)cc4nccn34)cn2)C[C@@H](C#N)C1` [Example 469, cis-3-{4-[7-(6-aminopyridin-3-yl)imidazo[1,2-a]pyridin-5-yl]-1H-pyrazol-1-yl}-3-(cyanomethyl)cyclobutanecarbonitrile], the 50% inhibitory concentration (IC50) on TYK2 is 0.102 µM; on JAK1 it was 2.39 µM; on JAK2, 1.04 µM; on JAK3 it was > 10 µM.
Taken in the same sequence, the figures for `N#CC[C@]1(n2cc(-c3cc(-c4cccc(C(N)=O)n4)cc4nccn34)cn2)C[C@H](C#N)C1` [Example 470, 6-(5-{1-[cis-3-cyano-1-(cyanomethyl)cyclobutyl]-1H-pyrazol-4-yl}imidazo[1,2-a]pyridin-7-yl)pyridine-2-carboxamide] were 0.025 µM, 0.62 µM, 0.147 µM and > 10 µM.
On the same counts, the results for `Cn1cc(-c2cc(-c3cnn([C@]4(CC#N)C[C@H](C#N)C4)n3)n3ccnc3c2)cn1` [Example 473, cis-3-(cyanomethyl)-3-{4-[7-(1-methyl-1H-pyrazol-4-yl)imidazo[1,2-a]pyridin-5-yl]-2H-1,2,3-triazol-2-yl}cyclobutanecarbonitrile] are 0.09 µM, 6.47 µM, 1.93 µM and > 10 µM.
On the same counts, the results for `Cn1cc(-c2cc(-c3cnn(C4(CC#N)CC(C#N)C4)n3)n3ccnc3c2)cn1` (stereo not drawn) [Example 474, trans-3-(cyanomethyl)-3-{4-[7-(1-methyl-1H-pyrazol-4-yl)imidazo[1,2-a]pyridin-5-yl]-2H-1,2,3-triazol-2-yl}cyclobutanecarbonitrile] are 1.12 µM, > 10 µM, > 10 µM and > 10 µM.
In the case of `Cn1cc(-c2cc(-c3cnn(C4(CC#N)CN(CC(F)(F)F)C4)c3)n3ncnc3c2)cn1` [Example 475, [3-{4-[7-(1-methyl-1H-pyrazol-4-yl)[1,2,4]triazolo[1,5-a]pyridin-5-yl]-1H-pyrazol-1-yl}-1-(2,2,2-trifluoroethyl)azetidin-3-yl]acetonitrile], the IC50 at TYK2 was 0.462 µM; at JAK1 it was 6.67 µM; at JAK2, 6.85 µM; on JAK3 it was > 10 µM.
Taken in the same sequence, the figures for `Cn1cc(-c2cc(-c3ccn(C4(CC#N)CN(CC(F)(F)F)C4)n3)n3ncnc3c2)cn1` [Example 476, [3-{3-[7-(1-methyl-1H-pyrazol-4-yl)[1,2,4]triazolo[1,5-a]pyridin-5-yl]-1H-pyrazol-1-yl}-1-(2,2,2-trifluoroethyl)azetidin-3-yl]acetonitrile] were 0.48 µM, 0.693 µM, 0.486 µM and 7.28 µM.
Turning to `Cn1cc(-c2cn3ncnc3c(-c3cnn(C4(CC#N)CN(CC#N)C4)c3)n2)cn1` [Example 477, 2,2′-(3-{4-[6-(1-methyl-1H-pyrazol-4-yl)[1,2,4]triazolo[1,5-a]pyrazin-8-yl]-1H-pyrazol-1-yl}azetidine-1,3-diyl)diacetonitrile], the concentration for half-maximal inhibition (IC50) at TYK2 was 0.261 µM; at JAK1, > 10 µM; on JAK2 it was 2.63 µM; at JAK3, > 10 µM.
With `Cn1cc(-c2cn3ncnc3c(-c3cnn(C4(CC#N)CN(S(C)(=O)=O)C4)c3)n2)cn1` [Example 478, [3-{4-[6-(1-methyl-1H-pyrazol-4-yl)[1,2,4,5-a]pyrazin-8-yl]-1H-pyrazol-1-yl}-1-(methylsulfonyl)azetidin-3-yl]acetonitrile], the IC50 was 0.281 µM on TYK2, > 10 µM on JAK1, 2.19 µM on JAK2 and > 10 µM at JAK3.
Regarding `Cn1cc(-c2cc3nccnc3c(-c3cnn(C4(CC#N)CN(CC(F)(F)F)C4)c3)n2)cn1` [Example 479, [3-{4-[7-(1-methyl-1H-pyrazol-4-yl)pyrido[3,4-b]pyrazin-5-yl]-1H-pyrazol-1-yl}-1-(2,2,2-trifluoroethyl)azetidin-3-yl]acetonitrile], the half-inhibitory concentration (IC50) on TYK2 was determined as 0.011 µM; at JAK1 it was 0.169 µM; on JAK2 it was 0.024 µM; at JAK3, 3.4 µM.
In the case of `Cn1cc(-c2cc3nccnc3c(-c3cnn(C4(CC#N)CN(CC#N)C4)c3)n2)cn1` [Example 480, 2,2′-(3-{4-[7-(1-methyl-1H-pyrazol-4-yl)pyrido[3,4-b]pyrazin-5-yl]-1H-pyrazol-1-yl}azetidine-1,3-diyl)diacetonitrile], the 50% inhibitory concentration (IC50) at TYK2 came out at 0.011 µM; at JAK1, 0.145 µM; on JAK2, 0.017 µM; on JAK3, 3.75 µM.
Regarding `Cn1cc(-c2cc3nccnc3c(-c3ccn(C4(CC#N)CN(CC#N)C4)n3)n2)cn1` [Example 481], the half-maximal inhibitory concentration (IC50) was 1.37 µM on TYK2, > 10 µM on JAK1, 3.53 µM on JAK2 and > 10 µM on JAK3.
